The supplement of paper PMC11061612

Tests used:
Experiment in all cases: Bliss excess, mean over the matrix (fraction); higher = more synergy
GCIY (Gastric Carcinoma) = test system: GCIY (Gastric Carcinoma)
How it was run: (§1)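 Cell lines grown in DMEM/F12 or RPMI with 10% FBS were plated in 1536-well plates and held 24 hours at 37°C, 5% CO2 before 72 hours of exposure to two-drug dose matrices, with DMSO typically at 0.2%. CellTiter-Glo 2.0 luminescence gave viability, which was converted to inhibition. Vehicle wells were set to 0 and blank wells to 1. Combination Emax is the second-highest inhibition in the matrix, and Bliss excess is the observed combination effect minus the expected EA + EB − EA·EB, where EA and EB are the single-agent effects.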

[1] = test system: NTERA-2-cl-D1 (Other Solid Carcinomas)
How it was run: as §1

[2] = test system: MDA-MB-175-VII (Breast Carcinoma)
How it was run: as §1

[3] = test system: SBC-5 (Small Cell Lung Carcinoma)
How it was run: as §1

[4] = test system: NCI-H1975 (Lung Adenocarcinoma)
How it was run: as §1

MG-63 (Osteosarcoma) = test system: MG-63 (Osteosarcoma)
How it was run: as §1

[5] = test system: SW1463 (Colorectal Carcinoma)
How it was run: as §1

[6] = test system: OCI-M1 (Acute Myeloid Leukemia)
How it was run: as §1

[7] = test system: HT-3 (Cervical Carcinoma)
How it was run: as §1

[8] = test system: SCC90 (Head and Neck Carcinoma)
How it was run: as §1

[9] = test system: KNS-62 (Squamous Cell Lung Carcinoma)
How it was run: as §1

[10] = test system: BC-1 (B-Cell Non-Hodgkin's Lymphoma)
How it was run: as §1

[11] = test system: ATN-1 (T-Lymphoblastic Leukemia)
How it was run: as §1

[12] = test system: IGROV-1 (Ovarian Carcinoma)
How it was run: as §1

[13] = test system: TK (B-Cell Non-Hodgkin's Lymphoma)
How it was run: as §1

[14] = test system: SUP-HD1 (Hodgkin's Lymphoma)
How it was run: as §1

[15] = test system: HT-1197 (Bladder Carcinoma)
How it was run: as §1

[16] = test system: BT-474 (Breast Carcinoma)
How it was run: as §1

DK-MG (Glioblastoma) = test system: DK-MG (Glioblastoma)
How it was run: as §1

[17] = test system: NCI-H2170 (Squamous Cell Lung Carcinoma)
How it was run: as §1

Row | Compound | Bliss excess (GCIY (Gastric Carcinoma)) | Bliss excess [1] | Bliss excess [2] | Bliss excess [3] | Bliss excess [4] | Bliss excess (MG-63 (Osteosarcoma)) | Bliss excess [5] | Bliss excess [6] | Bliss excess [7] | Bliss excess [8] | Bliss excess [9] | Bliss excess [10] | Bliss excess [11] | Bliss excess [12] | Bliss excess [13] | Bliss excess [14] | Bliss excess [15] | Bliss excess [16] | Bliss excess (DK-MG (Glioblastoma)) | Bliss excess [17]
1 | CN(C)CCCOc1ccc(-c2ccc3ncc4c(c3c2)n(C2CCOCC2)c(=O)n4C)cn1 [AZD0156] + C=CCn1c(=O)c2cnc(Nc3ccc(N4CCN(C)CC4)cc3)nc2n1-c1cccc(C(C)(C)O)n1 [AZD1775] (first compound max 1 µM, partner max 1 µM) | -0.0428 | -0.0807 | -0.0589 | -0.018 | 0.017 | -0.0428 | -0.0323 | 0.0077 | -0.023 | -0.0542 | -0.0373 | -0.0006 | 0.0198 | -0.0826 | -0.0045 | -0.0392 | -0.102 | -0.0647 | -0.0003 | 0.0914
2 | CN(C)CCCOc1ccc(-c2ccc3ncc4c(c3c2)n(C2CCOCC2)c(=O)n4C)cn1 [AZD0156] + CCN(CCO)CCCOc1ccc2c(Nc3cc(CC(=O)Nc4cccc(F)c4)[nH]n3)ncnc2c1 [AZD2811] (first compound max 1 µM, 7x7, partner max 1 µM) | -0.0301 | 0.0219 | -0.018 | 0.0184 | 0.0049 | -0.0079 | -0.0322 | 0.042 | -0.039 | -0.0021 | -0.0213 | 0.0234 | -0.0742 | -0.0527 | 0.0495 | 0.0327 | -0.0376 | -0.0423 | 0.0081 | -0.0136
3 | CN(C)CCCOc1ccc(-c2ccc3ncc4c(c3c2)n(C2CCOCC2)c(=O)n4C)cn1 [AZD0156] + C[C@@H]1COCCN1C2=NC(=NC(=C2)C3(CC3)[S@](=N)(=O)C)C4=C5C=CNC5=NC=C4 [AZD6738] (first compound max 1 µM, 7x7, partner max 10 µM) | 0.0607 | -0.0472 | -0.0122 | 0.0116 | 0.0026 | -0.0056 | -0.0057 | 0.0352 | 0.0031 | 0.0037 | -0.0343 | -0.0305 | -0.0052 | -0.0187 | 0.0289 | -0.0232 | -0.0362 | -0.0416 | 0.0346 | 0.0947
4 | CN(C)CCCOc1ccc(-c2ccc3ncc4c(c3c2)n(C2CCOCC2)c(=O)n4C)cn1 [AZD0156] + O=C(c1cc(Cc2n[nH]c(=O)c3ccccc23)ccc1F)N1CCN(C(=O)C2CC2)CC1 [Olaparib] (first compound max 3 µM, partner max 3 µM) | 0.0703 | 0.0068 | -0.0365 | 0.0732 | 0.0548 | 0.0183 | -0.035 | 0.17 | 0.0386 | -0.0621 | 0.0435 | 0.0648 | 0.011 | 0.0623 | 0.0213 | -0.039 | -0.0404 | -0.0189 | 0.0012 | 0.0947
5 | C=CCn1c(=O)c2cnc(Nc3ccc(N4CCN(C)CC4)cc3)nc2n1-c1cccc(C(C)(C)O)n1 [AZD1775] + C[C@@H]1COCCN1C2=NC(=NC(=C2)C3(CC3)[S@](=N)(=O)C)C4=C5C=CNC5=NC=C4 [AZD6738] (first compound max 1 µM, partner max 10 µM) | 0.0091 | 0.0123 | -0.0184 | 0.0037 | 0.0451 | 0.0271 | -0.0807 | 0.0327 | 0.0386 | 0.0167 | 0.0257 | 0.0338 | -0.0076 | -0.0348 | 0.0031 | -0.0282 | -0.0057 | -0.0425 | -0.0342 | -0.0253
6 | C=CCn1c(=O)c2cnc(Nc3ccc(N4CCN(C)CC4)cc3)nc2n1-c1cccc(C(C)(C)O)n1 [AZD1775] + O=C(c1cc(Cc2n[nH]c(=O)c3ccccc23)ccc1F)N1CCN(C(=O)C2CC2)CC1 [Olaparib] (first compound max 1 µM, partner max 10 µM) | -0.0521 | 0.107 | -0.0351 | -0.0435 | -0.0248 | -0.0548 | -0.0418 | -0.0374 | -0.0055 | -0.0686 | -0.0293 | -0.0326 | -0.0189 | -0.0797 | -0.0318 | -0.0346 | -0.0023 | -0.0611 | -0.054 | -0.008
7 | CCN(CCO)CCCOc1ccc2c(Nc3cc(CC(=O)Nc4cccc(F)c4)[nH]n3)ncnc2c1 [AZD2811] + C=CCn1c(=O)c2cnc(Nc3ccc(N4CCN(C)CC4)cc3)nc2n1-c1cccc(C(C)(C)O)n1 [AZD1775] (first compound max 1 µM, partner max 1 µM) | 0.0503 | 0.192 | -0.0427 | 0.114 | 0.0001 | -0.0052 | -0.0023 | 0.058 | -0.0176 | 0.0258 | -0.0339 | -0.031 | 0.0053 | -0.0034 | 0.0069 | -0.0238 | -0.114 | -0.0442 | 0.0373 | 0.051
8 | CCN(CCO)CCCOc1ccc2c(Nc3cc(CC(=O)Nc4cccc(F)c4)[nH]n3)ncnc2c1 [AZD2811] + C[C@@H]1COCCN1C2=NC(=NC(=C2)C3(CC3)[S@](=N)(=O)C)C4=C5C=CNC5=NC=C4 [AZD6738] (first compound max 1 µM, 7x7, partner max 10 µM) | -0.0326 | -0.065 | -0.0307 | -0.0236 | 0.0002 | 0.011 | -0.0218 | 0.0009 | -0.0538 | 0.019 | -0.0546 | -0.1 | -0.0839 | -0.0453 | -0.0108 | 0.0391 | -0.0441 | -0.0291 | -0.0146 | -0.0191
9 | CCN(CCO)CCCOc1ccc2c(Nc3cc(CC(=O)Nc4cccc(F)c4)[nH]n3)ncnc2c1 [AZD2811] + O=C(c1cc(Cc2n[nH]c(=O)c3ccccc23)ccc1F)N1CCN(C(=O)C2CC2)CC1 [Olaparib] (first compound max 1 µM, 7x7, partner max 10 µM) | -0.0066 | 0.066 | -0.0012 | 0.033 | 0.0034 | 0.0197 | 0.0014 | 0.0337 | 0.008 | 0.0459 | -0.0171 | -0.0401 | -0.0849 | 0.0329 | 0.0322 | 0.111 | 0.0045 | -0.0079 | 0.0024 | 0.0044
10 | CN(CCO)CC[C@H](CSc1ccccc1)Nc1ccc(S(=O)(=O)NC(=O)c2ccc(N3CCC([C@@H](O)c4ccccc4-c4ccc(Cl)cc4)CC3)cc2)cc1S(=O)(=O)C(F)(F)F [AZD4320] + C=CCn1c(=O)c2cnc(Nc3ccc(N4CCN(C)CC4)cc3)nc2n1-c1cccc(C(C)(C)O)n1 [AZD1775] (first compound max 1 µM, partner max 1 µM) | 0.0735 | 0.13 | 0.0035 | 0.0264 | 0.0195 | -0.0262 | -0.044 | 0.0479 | -0.0296 | 0.0385 | -0.0543 | 0.0386 | 0.0695 | 0.0505 | 0.0407 | -0.0383 | 0.0626 | -0.0232 | -0.0789 | 0.0131
11 | Cc1c2c(nn1C)CSCc1cc(n(C)n1)CSc1cc(c3ccccc3c1)OCCCc1c(C(=O)O)n(C)c3c-2c(Cl)ccc13 [AZD5991] + C1CN(CCC1(C(=O)N[C@@H](CCO)C2=CC=C(C=C2)Cl)N)C3=NC=NC4=C3C=CN4 [Capivasertib] (first compound max 1 µM, 7x7, partner max 3 µM) | 0.0118 |  | 0.0261 | -0.0069 | 0.0322 | -0.0384 | -0.0085 | -0.0105 | 0.0198 | -0.0533 | 0.0047 | 0.0256 | 0.0208 | 0.0239 | -0.0039 | -0.0833 | -0.0002 | 0.0359 | 0.047 | -0.0324
12 | Cc1c2c(nn1C)CSCc1cc(n(C)n1)CSc1cc(c3ccccc3c1)OCCCc1c(C(=O)O)n(C)c3c-2c(Cl)ccc13 [AZD5991] + CN(C)CCCOc1ccc(-c2ccc3ncc4c(c3c2)n(C2CCOCC2)c(=O)n4C)cn1 [AZD0156] (first compound max 1 µM, 7x7, partner max 1 µM) |  | -0.0123 | 0.0076 | 0.0387 | -0.0241 |  | -0.0212 | -0.0097 | 0.0222 | 0.0172 | -0.0201 | 0.0274 | 0.0058 | -0.0297 | 0.0046 | -0.122 | -0.0357 | 0.0064 | -0.0518 | -0.0237
13 | C[C@@H]1COCCN1c1cc(C2([S@](C)(=N)=O)CC2)nc(-c2ccnc3[nH]ccc23)n1 [AZD6738] + O=C(c1cc(Cc2n[nH]c(=O)c3ccccc23)ccc1F)N1CCN(C(=O)C2CC2)CC1 [Olaparib] (first compound max 10 µM, 7x7, partner max 10 µM) | -0.0433 | 0.0898 | 0.0522 | 0.0025 | -0.0088 | 0.047 |  | -0.017 | 0.0399 | 0.021 | 0.0026 | -0.0041 | 0.0169 | -0.0169 | -0.0552 | -0.054 | -0.0042 | -0.0135 | 0.0079 | -0.0373
14 | CC(=O)c1c(C)c2cnc(Nc3ccc(N4CCNCC4)cn3)nc2n(C2CCCC2)c1=O [Palbociclib] + CN(CC[C@H](CSC1=CC=CC=C1)NC2=C(C=C(C=C2)S(=O)(=O)NC(=O)C3=CC=C(C=C3)N4CCC(CC4)[C@H](C5=CC=CC=C5C6=CC=C(C=C6)Cl)O)S(=O)(=O)C(F)(F)F)CCO [AZD4320] (first compound max 10 µM, 7x7, partner max 1 µM) |  |  |  | -0.0715 | -0.0291 |  |  | -0.014 | -0.0431 | -0.0407 |  |  | -0.0253 | -0.0143 | 0.0858 | -0.0407 | -0.0184 | -0.108 | -0.0456 | -0.0809
